Structures can show the parent of a compound that is named as a salt. Where two headings read alike, the source gives them in different places.
How the values were obtained:
[1] = system: human erythrocytes; experiment: Hemolytic activity; type: cell-based; conditions: Erythrocyte, 1 h at 37 °C, read-out: ED50, Erythrocytes (hemolytic activity)
Description: Human blood (B(III) Rh+) was used to obtain erythrocytes by centrifuging 450× g three times for 5 min with phosphate-buffered saline (PBS) (pH 7.4) at 4 °C on centrifuge LABOFUGE 400R (Heraeus, Hanau, Germany). Ice-cold PBS (pH 7.4) was used for resuspension of erythrocytes residue to a final optical density of 1.5 at 700 nm, which was kept on ice. Then, 10 µL of tested compound solution or control (okhotoside A1-1 (7)) were added to 90 µL of erythrocyte suspension in V-bottom 96-well plates and exposed for 1 h at 37 °C. Next, centrifugation at 900× g for 10 min on a laboratory centrifuge LMC-3000 (Biosan, Riga, Latvia), led to separation of layers, and 80 µL of supernatant was carefully decanted and transferred into new flat-plate for each. The values of erythrocyte lysis were measured on microplate photometer Multiskan FC (Thermo Fisher Scientific, Waltham, MA, USA) at λ = 570 nm as hemoglobin concentration in supernatant. The effective dose, causing lysis of 50% erythrocytes (ED50), was calculated with SigmaPlot 14.0 software. All the experiments were carried out in triple repetitions, p ≤ 0.05.

[2] = in vitro; type: cell-based, human; conditions: human, MTT, 24 h; read-out: Cytotoxicity, IC50, MCF-10A
Excerpt: (§1) Human erythrocytes were purchased from the Station of Blood Transfusion, Vladivostok. Human mammary epithelial cell line MCF-10A CRL-10317, human breast cancer cell lines T-47D HTB-133, MCF-7 HTB-22, and MDA-MB-231 CRM-HTB-26 were received from ATCC (Manassas, VA, USA). Culturing conditions: medium of RPMI-1640 with 1% penicillin/streptomycin (Biolot, St. Petersburg, Russia) and 10% fetal bovine serum (FBS) (Biolot, St. Petersburg, Russia) for the T-47D cell line; Minimum Essential Medium (MEM) with 1% penicillin/streptomycin sulfate (Biolot, St. Petersburg, Russia) and FBS (Biolot, St. Petersburg, Russia) to a final concentration of 10% for MCF-7 and MDA-MB-231 cells; DMEM/F12 medium with 10% FBS, 20 ng/mL EGF, […] hydrocortisone, 100 ng/mL cholera toxin, 10 μg/mL insulin, and 1% penicillin/streptomycin (BioinnLabs, Rostov-on-Don, Russia) for MCF-10A cell line.
(§2) The concentrations of tested glycosides were 0.1–50 µM; positive controls were cisplatin and okhotoside A1-1 (7). […] Then, the solutions of tested compounds with medium were replaced by 100 µL of fresh medium, and 10 µL of 3-(4,5-dimethylthiazol-2-yl)-2,5-diphenyltetrazolium bromide (MTT) (PanReac, AppliChem, Darmstadt, Germany) stock solution (5 mg/mL) was added to each well and incubated for 4 h, followed by the addition of 100 µL of SDS-HCl solution (1 g SDS/10 mL d-H2O/17 µL 6 N HCl) and further incubated for 18 h. Multiskan FC microplate photometer (Thermo Fisher Scientific, Waltham, MA, USA) was used to measure the absorbance of the converted dye formazan at 570 nm. The concentration caused the 50% cell metabolic activity inhibition (IC50) expresses the cytotoxic activity of each glycoside. The experiments were conducted in triplicate, p ≤ 0.05.

[3] = system: MCF-7 cells; experiment: cells; type: cell-based, human; conditions: MTT, 24 h, read-out: Cytotoxicity, IC50, MCF-7
Excerpt: as §1
(§3) The concentrations of tested glycosides were 0.1–50 µM; positive controls were cisplatin and okhotoside A1-1 (7). Methodology: to each well of 96-well plates, the cell suspension (180 µL) with solution (20 µL) of tested glycoside in a certain concentration was placed (MCF-10A, MCF-7, T-47D, and MDA-MB-231—7 × 10^3 cells per well) and incubated in the atmosphere with 5% CO2 at 37 °C for 24 h. Then, the solutions of tested compounds with medium were replaced by 100 µL of fresh medium, and 10 µL of 3-(4,5-dimethylthiazol-2-yl)-2,5-diphenyltetrazolium bromide (MTT) (PanReac, AppliChem, Darmstadt, Germany) stock solution (5 mg/mL) was added to each well and incubated for 4 h, followed by the addition of 100 µL of SDS-HCl solution (1 g SDS/10 mL d-H2O/17 µL 6 N HCl) and further incubated for 18 h. Multiskan FC microplate photometer (Thermo Fisher Scientific, Waltham, MA, USA) was used to measure the absorbance of the converted dye formazan at 570 nm. The concentration caused the 50% cell metabolic activity inhibition (IC50) expresses the cytotoxic activity of each glycoside. The experiments were conducted in triplicate, p ≤ 0.05.

[4] = system: T-47D cells; experiment: cells; type: cell-based, human; conditions: MTT, 24 h, read-out: Cytotoxicity, IC50, T-47D
Excerpt: as §1, §3

[5] = system: MDA-MB-231 cells; experiment: cells; type: cell-based, human; conditions: MTT, 24 h, read-out: Cytotoxicity, IC50, MDA-MB-231
Excerpt: as §1, §2

[6] = system: MCF-10A cells; experiment: in vitro; type: cell-based, human; conditions: MTT, 24 h; read-out: Cytotoxicity, IC50, MCF-10A
Excerpt: as §1, §2

Row | SMILES | HC50 [1] [nM] | IC50 [2] [µM] | IC50 ([3]; Homo sapiens, MCF7) [µM] | IC50 ([4]; Homo sapiens, T47D) [µM] | IC50 ([5]; Homo sapiens, MDA-MB-231) [µM] | IC50 [6] [µM] | IC50 [3] [µM] | IC50 [4] [µM] | IC50 [5] [µM]
1 | CO[C@@H]1[C@@H](O)[C@H](O[C@@H]2[C@@H](O)[C@H](O[C@H]3[C@H](O)[C@@H](O[C@@H]4OC[C@@H](O)[C@H](O)[C@H]4O)[C@H](O[C@H]4[C@H](O[C@H]5CC[C@]6(C)C7CC[C@]8(C)[C@@H]([C@@](C)(O)[C@@H](CC=C(C)C)OC(C)=O)CC[C@@]8(C)C7=CC[C@H]6C5(C)C)OC[C@@H](OS(=O)(=O)O)[C@@H]4O)O[C@@H]3C)O[C@H](COS(=O)(=O)O)[C@H]2O)O[C@H](CO)[C@H]1O (stereo partly drawn) [Conicospermiumoside A3-2 (2), 3β-O-{3-O-methyl-β-D-glucopyranosyl-(1→3)-6-O-sodium sulfate-β-D-glucopyranosyl-(1→4)-[(1→2)-β-D-xylopyranosyl]-β-D-quinovopyranosyl-(1→2)-4-O-sodium sulfate-β-D-xylopyranosyl}-20R-hydroxy,22R-acetoxylanosta-7,24-diene] | 7560 ± 80 | 36.8 ± 2.48 | > 50 | 38.9 ± 1.62 | 20.7 ± 2.28 | – | – | – | –
2 | CO[C@@H]1[C@@H](O)[C@H](O[C@@H]2[C@@H](O)[C@H](O[C@H]3[C@H](O)[C@@H](O[C@@H]4OC[C@@H](O)[C@H](O)[C@H]4O)[C@H](O[C@H]4[C@H](O[C@H]5CC[C@]6(C)C7CC[C@]8(C)[C@@H]([C@@](C)(O)[C@H](O)/C=C/C(C)(C)O)CC[C@@]8(C)C7=CC[C@H]6C5(C)C)OC[C@@H](OS(=O)(=O)O)[C@@H]4O)O[C@@H]3C)O[C@H](COS(=O)(=O)O)[C@H]2O)O[C@H](COS(=O)(=O)O)[C@H]1O (stereo partly drawn) [Conicospermiumoside A7-2 (5), 3β-O-{6-O-sodium sulfate-3-O-methyl-β-D-glucopyranosyl-(1→3)-6-O-sodium sulfate-β-D-glucopyranosyl-(1→4)-[(1→2)-β-D-xylopyranosyl]-β-D-quinovopyranosyl-(1→2)-4-O-sodium sulfate-β-D-xylopyranosyl}-(20R,22R,25)-trihydroxylanosta-7,23-diene] | 20400 ± 360 | > 50 | > 50 | > 50 | 49.9 ± 1.45 | – | – | – | –
3 | CO[C@@H]1[C@@H](O)[C@H](O[C@@H]2[C@@H](O)[C@H](O[C@H]3[C@H](O)[C@@H](O[C@@H]4OC[C@@H](O)[C@H](O)[C@H]4O)[C@H](O[C@H]4[C@H](O[C@H]5CC[C@]6(C)C7CC[C@]8(C)[C@@H]([C@@](C)(O)[C@H](O)CC=C(C)C)CC[C@@]8(C)C7=CC[C@H]6C5(C)C)OC[C@@H](OS(=O)(=O)O)[C@@H]4O)O[C@@H]3C)O[C@H](COS(=O)(=O)O)[C@H]2O)O[C@H](COS(=O)(=O)O)[C@H]1O (stereo partly shown) [Frondoside A7-4 (14), frondoside A7-4] | 2160 ± 60 | 26.8 ± 0.94 | 32.9 ± 2.13 | 44.5 ± 2.18 | 8.11 ± 0.74 | – | – | – | –
4 | CO[C@@H]1[C@@H](O)[C@H](O[C@@H]2[C@@H](O)[C@H](O[C@H]3[C@H](O)[C@@H](O[C@@H]4OC[C@@H](O)[C@H](O)[C@H]4O)[C@H](O[C@H]4[C@H](OC5CC[C@]6(C)[C@H]7CCC89C(=O)O[C@@](C)(CCCC(C)C)C8[C@@H](OC(C)=O)C[C@@]9(C)C7=CC[C@H]6C5(C)C)OC[C@@H](OS(=O)(=O)O)[C@@H]4O)O[C@@H]3C)OC[C@H]2O)O[C@H](CO)[C@H]1O (stereo partly shown) [Frondoside A (10), frondoside A] | 1220 ± 60 | 11 ± 1.04 | 19.4 ± 0.48 | 9.76 ± 0.53 | 2.79 ± 0.09 | – | – | – | –
5 | COC1C(O)C(CO)OC(OC2C(O)COC(OC3C(C)OC(OC4C(OC5CCC6(C)C7CCC89C(=O)OC(C)(CC(=O)CC(C)C)C8C(OC(C)=O)CC9(C)C7=CCC6C5(C)C)OCC(OS(=O)(=O)O)C4O)C(O)C3O)C2O)C1O (stereo not shown) [Okhotoside A1-1 (7), okhotoside A1-1] | 420 ± 20 | 7.95 ± 0.44 | 10.9 ± 0.96 | 6.23 ± 0.68 | 2.25 ± 0.17 | – | – | – | –
6 | C=C(C)CCC[C@]1(C)OC(=O)C23CC[C@H]4C(=CC[C@H]5C(C)(C)C(O[C@@H]6OC[C@@H](OS(=O)(=O)O)[C@H](O)[C@H]6O[C@@H]6O[C@H](CO)[C@@H](O[C@@H]7O[C@H](COS(=O)(=O)O)[C@@H](O)[C@H](O[C@@H]8O[C@H](CO)[C@@H](O)[C@H](OC)[C@H]8O)[C@H]7O)[C@H](O)[C@H]6O[C@@H]6OC[C@@H](O)[C@H](O)[C@H]6O)CC[C@]45C)[C@]2(C)C[C@H](OC(C)=O)C31 (stereo partly shown) [Okhotoside B2 (9), okhotoside B2] | 1360 ± 100 | 10.7 ± 0.21 | 39.8 ± 2.96 | 11.1 ± 1.15 | 4.25 ± 0.38 | – | – | – | –
7 | N.N.[Cl][Pt][Cl] [cisplatin, reference compound] | – | – | – | – | – | 74.3 ± 2.19 | 113 ± 2.45 | > 160 | ≥ 160
